Measurements reported in patent US20060069132A1, “Azolecarboxamide herbicides” (priority 2004, published 2006).

Experiments:
yellow nutsedge = assay: Test C pre-/postemergence herbicide test; type: in vivo, Cyperus esculentus
In short: (§1)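 Visual injury scores run from 0 (no effect) to 100 (complete control), assessed relative to untreated controls 12 to 14 days after treatment in the greenhouse. Chemicals were formulated in a non-phytotoxic solvent mixture with surfactant and applied to soil after planting or to emerged plants at the 1- to 4-leaf stage.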

cocklebur = assay: Test C pre-/postemergence herbicide test; type: in vivo, Xanthium strumarium; details: for Cocklebur plant response rating: 500 g ai/ha
In short: as §1

eastern black nightshade = assay: Test C pre-/postemergence herbicide test; type: in vivo, Solanum ptycanthum; details: for Plant response rating, Nightshade / Plant response rating (0 = no effect, 100 = complete control), Nightshade: preemergence; for Nightshade plant response rating: Preemergence, scale 0 to 100, 0 no effect, 100 complete control
In short: as §1

bermudagrass = assay: Test C pre-/postemergence herbicide test; type: in vivo, Cynodon dactylon; details: for Bermudagrass plant response rating: 500 g ai/ha
In short: as §1

ducksalad = assay: Test C flooded paddy test; type: in vivo, Heteranthera limosa
giant foxtail = assay: Test A pre-/postemergence herbicide test; type: in vivo, Setaria faberi
In short: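 Pre: seeded sandy loam, directed soil spray, compound in non-phytotoxic solvent + surfactant. Post: 1–2-leaf plants (2–10 cm), sprayed to runoff. Greenhouse ~10 d; visual injury vs untreated, 0–100 scale.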

[1] = 62 g ai/ha, preemergence, scale 0 to 100
[2] = 125 g ai/ha, scale 0 (no effect) to 100 (complete control), visual, 12 to 14 days, preemergence
[3] = 250 g ai/ha, scale 0-100, preemergence
[4] = 500 g ai/ha, scale 0 to 100 (0 no effect, 100 complete control), visual, 12 to 14 days, preemergence
[5] = Preemergence, scale 0 to 100, 0 no effect, 100 complete control
[6] = 125 g ai/ha, scale 0 (no effect) to 100 (complete control), visual, 12 to 14 days
[7] = 500 g ai/ha, scale 0 to 100 (0 no effect, 100 complete control), visual, 12 to 14 days
[8] = 62 g ai/ha, preemergence, scale 0 to 100, 0 no effect, 100 complete control
[9] = Postemergence, 250 g ai/ha, scale 0 to 100, 0 no effect, 100 complete control
[10] = postemergence, 125 g ai/ha, scale 0 to 100
[11] = postemergence, 62 g ai/ha, scale 0 to 100
[12] = Postemergence, 500 g ai/ha, 0 to 100 scale, 0 no effect, 100 complete control
[13] = Postemergence, 2000 g ai/ha, 0 to 100 scale, 0 no effect, 100 complete control
[14] = Preemergence, 2000 g ai/ha, visual rating, 0 to 100 scale (0 no effect, 100 complete control)
[15] = 31 g ai/ha, preemergence, scale 0 to 100
[16] = Postemergence, 125 g ai/ha, scale 0 to 100, 0 no effect, 100 complete control
[17] = postemergence, 16 g ai/ha, scale 0 to 100
[18] = Preemergence, 500 g ai/ha, visual rating, 0 to 100 scale (0 no effect, 100 complete control)
[19] = Preemergence, 2000 g ai/ha, 0 to 100 scale, 0 no effect, 100 complete control
[20] = 250 g ai/ha, scale 0 to 100 (0 no effect, 100 complete control), visual, 12 to 14 days, preemergence
[21] = Preemergence, 500 g ai/ha, scale 0 to 100, 0 no effect, 100 complete control
[22] = 250 g ai/ha, scale 0 to 100 (0 no effect, 100 complete control), visual, 12 to 14 days

Structure (SMILES)	Plant response rating, Nutsedge, Yellow (yellow nutsedge; [1])	Plant response rating, Nutsedge, Yellow (yellow nutsedge; [2])	Plant response rating, Cocklebur (cocklebur; [1])	Plant response rating, Cocklebur (cocklebur; [2])	Cocklebur plant response rating (cocklebur; [5])	Plant response rating, Nightshade (eastern black nightshade; 62 g ai/ha, scale 0 to 100)	Plant response rating, Nightshade (eastern black nightshade; [6])	Plant response rating, Bermudagrass (bermudagrass; [8])	Plant response rating, Bermudagrass (bermudagrass; [2])	Bermudagrass plant response rating (bermudagrass; [5])	Plant response rating, Nutsedge, Yellow (yellow nutsedge; [11])	Plant response rating, Cocklebur (cocklebur; [11])	Foxtail, Giant plant response rating (giant foxtail; [12])	Plant response rating, Foxtail, Giant (giant foxtail; [13])	Foxtail, Giant plant response rating (giant foxtail; [14])	Plant response rating (0 = no effect, 100 = complete control), Nutsedge, Yellow (yellow nutsedge; 62 g ai/ha, preemergence)	Plant response rating (0 = no effect, 100 = complete control), Cocklebur (cocklebur; 62 g ai/ha, preemergence)	Plant response rating (0 = no effect, 100 = complete control), Bermudagrass (bermudagrass; 62 g ai/ha, preemergence)	Foxtail, Giant plant response rating (giant foxtail; [18])	Plant response rating, Bermudagrass (bermudagrass; [20])	other results
CCN1N=C(C(C)(C)C)CC1C(=O)Nc1cc(C(=O)N2CC=CC2)ccc1F (racemic) [Compound 310]	0	0	0	0	30	30	35	50	85	100	–	–	–	–	–	–	–	–	–	–	Plant response rating, Nutsedge, Yellow (yellow nutsedge; [3]): 0; Plant response rating, Nutsedge, Yellow (yellow nutsedge; [4]): 15; Plant response rating, Cocklebur (cocklebur; [3]): 5; Plant response rating, Nightshade (eastern black nightshade; 250 g ai/ha, scale 0-100): 100; Plant response rating, Nightshade (eastern black nightshade; [7]): 100; Plant response rating, Bermudagrass (bermudagrass; [3]): 100; Ducksalad plant response rating (ducksalad; 62 g ai/ha, scale 0 to 100): 45; Ducksalad plant response rating (ducksalad; 125 g ai/ha, scale 0 to 100 (0 no effect, 100 complete control)): 75; Ducksalad plant response rating (ducksalad; 250 g ai/ha, scale of 0 to 100, 0 is no effect, 100 is complete control): 80; Plant response rating, Ducksalad (ducksalad; 500 g ai/ha, visual rating after 12 to 14 days, scale 0 to 100 (0 no effect, 100 complete control)): 90
CCc1nc(C(C)(C)C)sc1C(=O)Nc1cccc(C(=O)NCC2CC2)c1 [Compound 212]	0	0	0	0	95	70	100	60	75	100	0	10	45	80	95	–	–	–	–	–	Plant response rating, Nutsedge, Yellow (yellow nutsedge; [3]): 0; Plant response rating, Nutsedge, Yellow (yellow nutsedge; [4]): 0; Nutsedge, Yellow plant response rating (yellow nutsedge; Postemergence, 500 g ai/ha, scale 0 to 100): 20; Plant response rating, Nutsedge, Yellow (yellow nutsedge; [9]): 20; Plant response rating, Nutsedge, Yellow (yellow nutsedge; [10]): 10; Plant response rating, Cocklebur (cocklebur; [3]): 5; Cocklebur plant response rating (cocklebur; Postemergence, scale 0 to 100): 70; Plant response rating, Cocklebur (cocklebur; [9]): 70; Plant response rating, Cocklebur (cocklebur; [10]): 60; Plant response rating, Nightshade (eastern black nightshade; 250 g ai/ha, scale 0-100): 100; Plant response rating, Nightshade (eastern black nightshade; [7]): 100; Plant response rating, Bermudagrass (bermudagrass; [3]): 80; Bermudagrass plant response rating (bermudagrass; Postemergence, scale 0 to 100): 50; Plant response rating, Bermudagrass (bermudagrass; [9]): 10; Plant response rating, Bermudagrass (bermudagrass; [10]): 0; Plant response rating, Bermudagrass (bermudagrass; [11]): 0; Foxtail, Giant plant response rating (giant foxtail; preemergence, 500 g ai/ha, visual injury, 0 to 100 scale (0 no effect, 100 complete control)): 70
CCNC(=O)c1cccc(NC(=O)c2cc(C(C)(C)C)nn2CCF)c1 [Compound 35]	–	0	–	20	–	–	90	–	100	–	0	60	–	70	–	0	0	90	80	–	Plant response rating, Nutsedge, Yellow (yellow nutsedge; 16 g ai/ha, scale 0 to 100, last section of Table C, preemergence): 0; Plant response rating, Nutsedge, Yellow (yellow nutsedge; [15]): 0; Plant response rating, Nutsedge, Yellow (yellow nutsedge; [10]): 0; Plant response rating, Cocklebur (cocklebur; [15]): 0; Plant response rating, Cocklebur (cocklebur; [16]): 70; Plant response rating, Cocklebur (cocklebur; [17]): 20; Plant response rating, Cocklebur (cocklebur; postemergence, 31 g ai/ha, scale 0 to 100): 20; Plant response rating, Nightshade (eastern black nightshade; 31 g ai/ha, scale 0 to 100): 70; Plant response rating, Bermudagrass (bermudagrass; 16 g ai/ha, scale 0 to 100, 0 no effect, 100 complete control, last section of Table C (species set of preemergence test)): 0; Plant response rating, Bermudagrass (bermudagrass; [15]): 30; Plant response rating, Bermudagrass (bermudagrass; [16]): 20; Plant response rating, Bermudagrass (bermudagrass; [17]): 0; Plant response rating, Bermudagrass (bermudagrass; [11]): 0; Plant response rating, Foxtail, Giant (giant foxtail; [12]): 50; Foxtail, Giant plant response rating (giant foxtail; [19]): 100
CCn1nc(C(C)(C)C)cc1C(=O)Nc1cccc(C(=O)NCC(C)C)c1 [Compound 61]	–	0	–	0	0	–	20	–	70	95	–	–	–	85	–	0	0	10	20	80	Plant response rating, Nutsedge, Yellow (yellow nutsedge; [20]): 10; Nutsedge, Yellow plant response rating (yellow nutsedge; [21]): 30; Plant response rating (0 = no effect, 100 = complete control), Nightshade (eastern black nightshade; 62 g ai/ha): 0; Plant response rating, Nightshade (eastern black nightshade; [22]): 40; Nightshade plant response rating (eastern black nightshade; 500 g ai/ha): 90; Plant response rating, Foxtail, Giant (giant foxtail; [12]): 20; Foxtail, Giant plant response rating (giant foxtail; [19]): 75
CCn1nc(C(C)(C)C)cc1C(=O)Nc1cccc(C(=O)NC2CC2)c1 [Compound 44]	–	0	–	–	–	–	90	–	–	–	20	50	–	90	–	0	0	0	65	20	Plant response rating, Nutsedge, Yellow (yellow nutsedge; [20]): 0; Plant response rating, Nutsedge, Yellow (yellow nutsedge; [9]): 20; Plant response rating, Cocklebur (cocklebur; [20]): 0; Plant response rating, Cocklebur (cocklebur; [16]): 70; Plant response rating, Cocklebur (cocklebur; [9]): 70; Plant response rating (0 = no effect, 100 = complete control), Nightshade (eastern black nightshade; 62 g ai/ha): 80; Plant response rating, Nightshade (eastern black nightshade; [22]): 100; Plant response rating, Bermudagrass (bermudagrass; [16]): 90; Plant response rating, Foxtail, Giant (giant foxtail; [12]): 50; Foxtail, Giant plant response rating (giant foxtail; [19]): 100
CCN(CC)C(=O)c1ccnc(NC(=O)c2cc(C(C)(C)C)nn2CC)c1 [Compound 153]	0	0	0	0	0	90	100	70	95	100	–	–	20	90	60	–	–	–	15	95	Nutsedge, Yellow plant response rating (yellow nutsedge; [21]): 45; Plant response rating, Cocklebur (cocklebur; [20]): 0; Nightshade plant response rating (eastern black nightshade; 500 g ai/ha): 100
CCCCOc1cccc(NC(=O)c2cc(C(C)(C)C)nn2CC)c1 [Compound 137]	–	0	–	0	0	–	85	–	100	100	–	–	20	30	80	0	0	50	50	100	Nutsedge, Yellow plant response rating (yellow nutsedge; [21]): 0; Plant response rating, Cocklebur (cocklebur; [20]): 0; Plant response rating (0 = no effect, 100 = complete control), Nightshade (eastern black nightshade; 62 g ai/ha): 60; Nightshade plant response rating (eastern black nightshade; 500 g ai/ha): 90
